According to patent publication US20210121426A1, “BLOOD PURIFICATION BY ALKALINIZING AGENT” (TOHOKU UNIVERSITY, priority 2017, published 2021):
Marks after values point to notes of the source that are not given here.

Legend:
[1] = tested on: p-cresyl sulfate; test: Human clinical trial in CKD patients: p-cresyl sulfate in plasma and early morning urine (LC-MS/MS); format: in vivo; design: key to Influence on concentration of PCS / Influence on PCS U/P ratio: Excellent effects: ◯; Poor effects: X; No significant difference: —; (◯): whether or not there is an effect of promoting excretion of indoxyl sulfate into the urine cannot be determined
Experimental: (§1) 1. […] Patients were assigned to each group so that age, sex, presence of diabetes, and eGFR were not biased. Each group was treated according to the “CKD medical care guide-summary of treatment” (hereinafter referred to as standard treatment).
(§2) An alkalinizing agent was not administered to the control group. […] A pH of early morning urine was controlled over time so that the dosage could be increased up to 6 tablets, 3 times a day (morning, noon, evening) as needed according to the discretion of the physician in cases where a pH of early morning urine was less than pH 6.5. To the group B, 3 tablets a day in which each tablet contained 500 mg of sodium bicarbonate were orally administered 3 times a day (morning, noon, evening) for 24 weeks. A pH of early morning urine was controlled over time so that the dosage could be increased up to 6 tablets, 3 times a day (morning, noon, evening) as needed according to the discretion of the physician in cases where a pH of early morning urine was less than pH 6.5.
(§3) Early morning urine and blood were collected before the start of administration, and 6 weeks, 12 weeks, and 24 weeks after the start of administration, and each specimen was stored at −80° C. Methods used in the present field for indoxyl sulfate, p-cresyl sulfate, phenylacetyl-L-glutamine, hippuric acid, and argininosuccinic acid in urine and blood (Sato, E., et. al., Metabolic alteration by indoxyl sulfate in skeletal muscle induce uremic sarcopenia in chronic kidney disease., Sci Rep. 2016 Nov. 10; 6:36618. doi: 10.1038/srep36618, and the like) were referred to, and quantitative analysis was performed using the following liquid chromatography triple quadrupole mass spectrometer (LC-MS/MS).
(§4) For LC, NANOSPACE SI-2 (manufactured by Shiseido) was used, and […] MGM was selected as the analytical column.
(§5) For MS, TSQ Quantiva (manufactured by Thermo Fisher Scientific Co., Ltd.) was used, and five compounds were ionized in the negative mode and detected using the Selected Reaction Monitoring method. The quantitative value was calculated using a calibration curve prepared with a standard solution of each compound.
(§6) For statistical analysis, the Mann-Whitney test was used for comparison between groups, and the Wilcoxon test was used for comparison of changes over time. The Pearson test was used for correlation.
(§7) Then, the average value and SD of each group were calculated for (i) to (ix) above. For each of (iv) to (ix) above, the average value and SD of each group were calculated for all data of 6 weeks, 12 weeks, and 24 weeks after the start of administration in each group.

[2] = tested on: hippuric acid; test: Urine hippuric acid (HA) corrected by urinary specific gravity; format: in vivo, human
From the text: (§8) Medical Examination, Vol. 44, No. 1, 1995, pages 79-83 by Tetsuo Aoki et al. was referred to. A urinary specific gravity 1.022 was converted into a reference value.
(§9) Specific gravity correction value (unit/1.022·UG)=actual measurement value×(1.022−1.000)/(specific gravity value−1.000)

[3] = tested on: p-cresyl sulfate; test: Urine p-cresyl sulfate (PCS) corrected by urinary specific gravity; format: in vivo, human
From the text: as §8, §9

[4] = tested on: argininosuccinic acid; test: Human clinical trial in CKD patients: argininosuccinic acid in plasma and early morning urine (LC-MS/MS); format: in vivo; design: key to Influence on concentration of ASA / Influence on ASA U/P ratio: Excellent effects: ◯; Poor effects: X; No significant difference: —; (◯): whether or not there is an effect of promoting excretion of indoxyl sulfate into the urine cannot be determined
Experimental: as §1, §2, §3, §4, §5, §6, §7

[5] = 0 W, before the start of administration
[6] = 6-24 W, all data of 6, 12 and 24 weeks
[7] = Plasma, comparison with reference drug
[8] = Urine, comparison with reference drug
[9] = compared to before administration

SMILES: O=C([O-])O.[Na+] [Bicarbonate, sodium bicarbonate]
- Plasma p-Cresyl Sulfate [1, 5]: 5402 ± 5209 ng/mL
- Urine p-Cresyl Sulfate (early morning urine) [1, 5]: 66164 ± 97704 ng/mL
- p-Cresyl Sulfate-Urine/Plasma ratio [1, 5]: 15.6 ± 11.1
- Plasma p-Cresyl Sulfate [1, 6]: 4187 ± 4354 ng/mL
- Plasma p-Cresyl Sulfate, change from week 0 [1, 6]: -1038 ± 2773 ng/mL
- Urine p-Cresyl Sulfate (early morning urine) [1, 6]: 52501 ± 73583 ng/mL
- Urine p-Cresyl Sulfate, change from week 0 [1, 6]: -13663 ± 74566 ng/mL
- p-Cresyl Sulfate-Urine/Plasma ratio [1, 6]: 16.8 ± 13.9 ^d
- p-Cresyl Sulfate-Urine/Plasma ratio, change from week 0 [1, 6]: 1.20 ± 11.45
- Plasma p-Cresyl Sulfate ([1]; 6 W): 4506 ± 5300 ng/mL
- Plasma p-Cresyl Sulfate, change from week 0 ([1]; 6 W): -895.9 ± 2153 ng/mL
- Urine p-Cresyl Sulfate (early morning urine) ([1]; 6 W): 67744 ± 105548 ng/mL
- Urine p-Cresyl Sulfate, change from week 0 ([1]; 6 W): 1580 ± 51468 ng/mL
- p-Cresyl Sulfate-Urine/Plasma ratio ([1]; 6 W): 17.0 ± 12.0
- p-Cresyl Sulfate-Urine/Plasma ratio, change from week 0 ([1]; 6 W): 1.39 ± 8.25
- Plasma p-Cresyl Sulfate ([1]; 12 W): 3771 ± 4139 ng/mL
- Plasma p-Cresyl Sulfate, change from week 0 ([1]; 12 W): -1103 ± 2478 ng/mL
- Urine p-Cresyl Sulfate (early morning urine) ([1]; 12 W): 37730 ± 48411 ng/mL
- Urine p-Cresyl Sulfate, change from week 0 ([1]; 12 W): -28434 ± 72253 ng/mL
- p-Cresyl Sulfate-Urine/Plasma ratio ([1]; 12 W): 16.5 ± 17.9
- p-Cresyl Sulfate-Urine/Plasma ratio, change from week 0 ([1]; 12 W): 0.91 ± 15.68
- Plasma p-Cresyl Sulfate ([1]; 24 W): 4284 ± 3682 ng/mL
- Plasma p-Cresyl Sulfate, change from week 0 ([1]; 24 W): -1119 ± 3631 ng/mL
- Urine p-Cresyl Sulfate (early morning urine) ([1]; 24 W): 52029 ± 57779 ng/mL
- Urine p-Cresyl Sulfate, change from week 0 ([1]; 24 W): -14163 ± 95244 ng/mL
- p-Cresyl Sulfate-Urine/Plasma ratio ([1]; 24 W): 17.0 ± 11.8 ^c
- p-Cresyl Sulfate-Urine/Plasma ratio, change from week 0 ([1]; 24 W): 1.31 ± 9.81
- Influence on concentration of PCS ([1]; Plasma, comparison with Cont): —
- Influence on concentration of PCS [1, 7]: ◯
- Influence on PCS U/P ratio ([1]; comparison with Cont): ◯
- Influence on PCS U/P ratio ([1]; comparison with reference drug): —
- Influence on concentration of PCS ([1]; Urine, comparison with Cont): —
- Influence on concentration of PCS [1, 8]: X
- concentration of p-cresyl sulfate in plasma [1, 9]: decreased
- concentration of p-cresyl sulfate in urine [1, 9]: such an effect was not recognized
- Urine HA, specific gravity corrected ([2]; 0 W): 202.3 ± 185.6 μg · mL^−1/1.022 · UG
- Urine HA, specific gravity corrected ([2]; 6-24 W, all data): 170.2 ± 101.6 μg · mL^−1/1.022 · UG
- Urine HA, specific gravity corrected, % Relative value vs week 0 ([2]; 6-24 W, all data): 118 ± 106%
- Urine HA, specific gravity corrected, difference vs week 0 ([2]; 6-24 W, all data): −32.1 ± 160.3 μg · mL^−1/1.022 · UG
- Urine HA, specific gravity corrected ([2]; 6 W): 161.8 ± 111.1 μg · mL^−1/1.022 · UG
- Urine HA, specific gravity corrected, % Relative value vs week 0 ([2]; 6 W): 104 ± 89%
- Urine HA, specific gravity corrected, difference vs week 0 ([2]; 6 W): −40.5 ± 171.7 μg · mL^−1/1.022 · UG
- Urine HA, specific gravity corrected ([2]; 12 W): 171.1 ± 87.0 μg · mL^−1/1.022 · UG
- Urine HA, specific gravity corrected, % Relative value vs week 0 ([2]; 12 W): 133 ± 134%
- Urine HA, specific gravity corrected, difference vs week 0 ([2]; 12 W): −31.2 ± 163.7 μg · mL^−1/1.022 · UG
- Urine HA, specific gravity corrected ([2]; 24 W): 177.7 ± 111.0 μg · mL^−1/1.022 · UG
- Urine HA, specific gravity corrected, % Relative value vs week 0 ([2]; 24 W): 118 ± 96%
- Urine HA, specific gravity corrected, difference vs week 0 ([2]; 24 W): −24.6 ± 155.3 μg · mL^−1/1.022 · UG
- Urine PCS, specific gravity corrected ([3]; 0 W): 113.0 ± 119.5 μg · mL^−1/1.022 · UG
- Urine PCS, specific gravity corrected ([3]; 6-24 W, all data): 83.2 ± 93.2 μg · mL^−1/1.022 · UG
- Urine PCS, specific gravity corrected, % Relative value vs week 0 ([3]; 6-24 W, all data): 151 ± 323^b,e %
- Urine PCS, specific gravity corrected, difference vs week 0 ([3]; 6-24 W, all data): −29.8 ± 66.1^b,d μg · mL^−1/1.022 · UG
- Urine PCS, specific gravity corrected ([3]; 6 W): 98.1 ± 118.3 μg · mL^−1/1.022 · UG
- Urine PCS, specific gravity corrected, % Relative value vs week 0 ([3]; 6 W): 83 ± 34^d,g %
- Urine PCS, specific gravity corrected ([3]; 12 W): 66.7 ± 73.0 μg · mL^−1/1.022 · UG
- Urine PCS, specific gravity corrected, % Relative value vs week 0 ([3]; 12 W): 105 ± 112%
- Urine PCS, specific gravity corrected, difference vs week 0 ([3]; 12 W): −46.3 ± 68.4^d,g μg · mL^−1/1.022 · UG
- Urine PCS, specific gravity corrected ([3]; 24 W): 84.8 ± 86.0 μg · mL^−1/1.022 · UG
- Urine PCS, specific gravity corrected, % Relative value vs week 0 ([3]; 24 W): 265 ± 540%
- Urine PCS, specific gravity corrected, difference vs week 0 ([3]; 24 W): −28.3 ± 84.4^ μg · mL^−1/1.022 · UG
- Arginino Succinic Acid-Urine/Plasma ratio [4, 5]: 3.82 ± 4.93
- Plasma Arginino Succinic Acid [4, 5]: 1178 ± 655 ng/mL
- Urine Arginino Succinic Acid (early morning urine) [4, 5]: 2911 ± 1691 ng/mL
- ASA - Urine/Plasma ratio, change from week 0 [4, 6]: 1.15 ± 7.87
- Arginino Succinic Acid-Urine/Plasma ratio [4, 6]: 4.97 ± 7.98
- Plasma Arginino Succinic Acid [4, 6]: 1327 ± 1416 ng/mL
- Plasma Arginino Succinic Acid, change from week 0 [4, 6]: 148.9 ± 1134 ng/mL
- Urine Arginino Succinic Acid (early morning urine) [4, 6]: 3071 ± 2386 ng/mL
- Urine Arginino Succinic Acid, change from week 0 [4, 6]: 160.2 ± 1756 ng/mL
- ASA - Urine/Plasma ratio, change from week 0 ([4]; 6 W): 1.93 ± 7.90
- Arginino Succinic Acid-Urine/Plasma ratio ([4]; 6 W): 5.75 ± 9.80
- Plasma Arginino Succinic Acid ([4]; 6 W): 1245 ± 748 ng/mL
- Plasma Arginino Succinic Acid, change from week 0 ([4]; 6 W): 66.5 ± 565.5 ng/mL
- Urine Arginino Succinic Acid (early morning urine) ([4]; 6 W): 3346 ± 2636 ng/mL
- Urine Arginino Succinic Acid, change from week 0 ([4]; 6 W): 434.7 ± 1299 ng/mL
- effect of excretion of argininosuccinic acid from blood into urine ([4]; 6 to 24 weeks, urine/plasma ratio): more strongly recognized
- ASA - Urine/Plasma ratio, change from week 0 ([4]; 12 W): −1.01 ± 4.47
- Arginino Succinic Acid-Urine/Plasma ratio ([4]; 12 W): 2.81 ± 1.86
- Plasma Arginino Succinic Acid ([4]; 12 W): 1576 ± 2160 ng/mL
- Plasma Arginino Succinic Acid, change from week 0 ([4]; 12 W): 397.7 ± 1733 ng/mL
- Urine Arginino Succinic Acid (early morning urine) ([4]; 12 W): 2647 ± 2123 ng/mL
- Urine Arginino Succinic Acid, change from week 0 ([4]; 12 W): -264.1 ± 1491 ng/mL
- ASA - Urine/Plasma ratio, change from week 0 ([4]; 24 W): 2.54 ± 10.20^a
- Arginino Succinic Acid-Urine/Plasma ratio ([4]; 24 W): 6.36 ± 9.60
- Plasma Arginino Succinic Acid ([4]; 24 W): 1160 ± 977 ng/mL
- Plasma Arginino Succinic Acid, change from week 0 ([4]; 24 W): -17.6 ± 776.9 ng/mL
- Urine Arginino Succinic Acid (early morning urine) ([4]; 24 W): 3221 ± 2466 ng/mL
- Urine Arginino Succinic Acid, change from week 0 ([4]; 24 W): 309.9 ± 2335 ng/mL
- Influence on concentration of ASA ([4]; Plasma, comparison with Cont): —
- Influence on concentration of ASA [4, 7]: —
- Influence on ASA U/P ratio ([4]; comparison with Cont): —
- Influence on ASA U/P ratio ([4]; comparison with reference drug): —
- Influence on concentration of ASA ([4]; Urine, comparison with Cont): —
- Influence on concentration of ASA [4, 8]: —
